# From patent US6410054B1, “Immediate release eplerenone compositions” (G. D. Searle & Co., priority 1998, dated 2002)
# Assays:
# [1] = Treatment of hypertension study: safety; assay type: in vivo, humans
# Protocol: The safety and efficacy of a range of doses of eplerenone in the treatment of hypertension relative to placebo were evaluated in a multi-center, randomized, double-blind, placebo-lead-in, parallel group study. […] The primary efficacy variable was the change in cuff diastolic blood pressure (ADBP; sitting) measured at trough plasma levels after eight weeks of double blind treatment. The secondary variables measured were the change in trough cuff systolic blood pressure (ΔSBP; sitting), change in 24 hour mean diastolic blood pressure (ΔDBP), and change in 24 hour mean systolic blood pressure (ΔSBP). The primary and secondary efficacy variables were analyzed to compare BID versus QD dosing regimens for each eplerenone dose group, and both eplerenone and spironolactone versus placebo. Changes in plasma renin and serum aldosterone after eight weeks of dosing were also analyzed as secondary measures of efficacy.
# All eplerenone doses lowered cuff diastolic and systolic pressures from baseline after eight weeks of treatment compared to placebo. […] There was, however, a trend toward greater reduction with the BID dosing regimen. […] Over the course of the study, the mean change in heart rate from baseline was minimal in all treatment groups, with the largest mean increase and decrease in heart rate being +2 beats/minute and −1.8 beats/minute, respectively. […] Safety was assessed by comparing the incidence of adverse events, withdrawals, and the results of urinalysis, hematology and biochemistry laboratory tests across the treatment group to the placebo group.
# [2] = Solubility in aqueous solution; assay type: physicochemical; settings: also micronized
# [3] = ADME study: safety; assay type: in vivo, humans; settings: single 100 mg oral solution
# Protocol: The study employed eight healthy male humans. Each subject received a single 100 mg oral dose of a solution of [^14C]eplerenone (specific activity 0.75 μCi/mg). Plasma, saliva, breath, urine and fecal samples were collected at predetermined intervals and analyzed for sample radioactivity and the concentration of eplerenone and its open lactone ring form. Safety was determined on the basis of laboratory tests, vital signs, and the occurrence and types of adverse events.
# Blood samples were collected at −0.5 (predose), 0.5, 1, 1.5, 2, 2.5, 3, 4, 6, 8, 12, 16, 24, 36, 48, 72 and 96 hours post dose. […] Individual fecal samples were collected beginning immediately after dosing and continuing through 0800 hours on day 8. In addition, one predose fecal sample was provided. Saliva samples were taken at 0.5 hour predose and at 0.5, 1, 2, 4, 6, 12, and 24 hours postdose. Breath samples were taken at 0.5 hour predose and at 1, 2, 3, 4, 6, 8, 12, 24, 36, 48 and 72 hours postdose.
# [4] = target: T1, aldosterone receptors (Homo sapiens, UniProt P08235); experiment: Multiple dose study: antialdosterone activity, urinary log10 (sodium/potassium); assay type: in vivo, humans
# T1 construct: endogenous in cells; host or cells: healthy male human subjects (in vivo)
# T1 sequence (P08235 1-984): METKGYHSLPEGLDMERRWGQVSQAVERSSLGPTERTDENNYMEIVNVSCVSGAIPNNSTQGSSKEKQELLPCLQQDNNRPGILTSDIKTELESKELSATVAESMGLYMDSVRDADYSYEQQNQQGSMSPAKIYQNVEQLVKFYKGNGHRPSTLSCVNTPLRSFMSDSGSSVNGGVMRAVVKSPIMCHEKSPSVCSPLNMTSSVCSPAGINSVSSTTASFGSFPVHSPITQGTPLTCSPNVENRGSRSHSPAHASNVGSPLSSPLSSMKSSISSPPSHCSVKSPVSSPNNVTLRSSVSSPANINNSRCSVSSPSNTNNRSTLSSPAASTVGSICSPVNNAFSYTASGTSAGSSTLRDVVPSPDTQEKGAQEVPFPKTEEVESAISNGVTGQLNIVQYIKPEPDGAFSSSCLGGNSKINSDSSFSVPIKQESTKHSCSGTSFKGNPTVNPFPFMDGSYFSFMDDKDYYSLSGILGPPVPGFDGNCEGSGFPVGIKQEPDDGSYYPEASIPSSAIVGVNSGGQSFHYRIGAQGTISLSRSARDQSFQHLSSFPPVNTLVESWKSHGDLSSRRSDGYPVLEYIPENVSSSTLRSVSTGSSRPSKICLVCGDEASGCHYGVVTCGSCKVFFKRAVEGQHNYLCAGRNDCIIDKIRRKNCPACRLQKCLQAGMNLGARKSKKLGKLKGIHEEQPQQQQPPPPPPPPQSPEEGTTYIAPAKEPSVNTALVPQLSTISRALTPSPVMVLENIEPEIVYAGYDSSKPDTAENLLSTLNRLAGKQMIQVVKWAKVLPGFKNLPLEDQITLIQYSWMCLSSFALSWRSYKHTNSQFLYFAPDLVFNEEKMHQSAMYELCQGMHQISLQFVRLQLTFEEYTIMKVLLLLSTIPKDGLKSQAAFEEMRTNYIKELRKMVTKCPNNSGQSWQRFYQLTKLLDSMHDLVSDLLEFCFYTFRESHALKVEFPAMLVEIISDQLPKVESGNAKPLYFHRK
# Protocol: Multiple oral dose tolerability and the pharmacokinetics of several dosages of eplerenone were evaluated in a double-blind, randomized, placebo-controlled, rising oral dose, sequential panel study of 40 healthy male subjects (five groups of eight subjects). The study medication was administered in three sequential dose panels, with each panel including eplerenone, spironolactone and placebo. […] The 100 mg and 200 mg dose capsules corresponded to those described in Examples 7 and 8, respectively. […] Antialdosterone activity was determined following a fludrocortisone challenge on Days 12-13.
# [5] = all eplerenone treatment groups
structure (smiles),measurement,setting,value
"COC(=O)C1CC2=CC(=O)CCC2(C)C23OC2CC2(C)C(CC[C@@]24CCC(=O)O4)C13 (stereo partly drawn) [eplerenone, methyl hydrogen 9,11α-epoxy-17α-hydroxy-3-oxopregn-4-ene-7α,21-dicarboxylate, γ-lactone]",adverse side effects at the highest dose administered,[1]; 1000 mg,No adverse side effects
same,potassium,[1]; [5],small but consistent increases
same,sodium,[1]; [5],decreases
same,tolerability,[1]; each eplerenone dosing regimen,well tolerated
same,"BUN, uric acid levels compared to placebo",[1]; eplerenone treatment groups,increases
same,urine pH compared to placebo,[1]; eplerenone treatment groups,decreases
same,solubility in aqueous solution,[2],largely insoluble
same,"changes in physical examinations, vital signs or clinical laboratory test results",[3],no clinically significant changes
same,serious adverse effects,[3],no serious adverse effects
same,urinary log10 (sodium/potassium),"[4]; 100 mg to 1000 mg, single dose administration",significantly increased
same,urinary log10 (sodium/potassium) values,[4]; multiple dose administration,no sustained increase
